Data set [1] addresses T1, CYP2B6 (Homo sapiens, UniProt P20813).
T1 sequence (P20813 1-491): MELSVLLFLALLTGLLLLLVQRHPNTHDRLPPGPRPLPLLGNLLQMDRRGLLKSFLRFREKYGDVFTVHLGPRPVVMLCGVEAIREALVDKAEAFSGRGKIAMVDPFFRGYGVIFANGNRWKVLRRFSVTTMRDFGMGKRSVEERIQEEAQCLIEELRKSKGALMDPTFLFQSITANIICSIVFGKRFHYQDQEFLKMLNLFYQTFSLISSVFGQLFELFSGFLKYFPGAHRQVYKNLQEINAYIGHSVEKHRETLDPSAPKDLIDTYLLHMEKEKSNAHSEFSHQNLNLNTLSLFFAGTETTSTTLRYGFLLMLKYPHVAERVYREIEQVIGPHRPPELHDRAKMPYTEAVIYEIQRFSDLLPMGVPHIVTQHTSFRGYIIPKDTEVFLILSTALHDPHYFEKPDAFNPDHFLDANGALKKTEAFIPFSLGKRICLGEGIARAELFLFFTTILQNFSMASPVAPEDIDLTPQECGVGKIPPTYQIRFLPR
Put plainly: Reversible inhibition kinetics (Lineweaver-Burk), CYP2B6 in HLMs. Type of data set: in vitro ADME. Details: 0.20 mg/mL HLMs; from tissue; host or cells: human liver microsomes. To be noted: bupropion. The protocol:
(§1) The components of the incubation system were as follows: 0.20 mg/mL HLMs or 0.20 mg/mL RLMs, 0.1 M Tris-HCl, vortioxetine, and the probe substrates of each enzyme. In the study of Km’s (Michaelis–Menten constant) experiment, midazolam (1, 2, 5, 10, 20, 50 and 100 μM in HLMs and RLMs) corresponded to CYP3A4/3A; bupropion (10, 20, 50, 100, 200, 500, 1,000 and 2000 μM in HLMs; 1, 2, 5, 10, 20, 50, 100 and 200 μM in RLMs) corresponded to CYP2B6/2B; amodiaquine (5, 10, 20, 50, 100 and 200 μM in HLMs; 10, 20, 50, 100, 200, 500 μM in RLMs) corresponded to CYP2C8/CYP2C-1; losartan (1, 2, 5, 10, 20, 50, 100, 200 μM in HLMs; 10, 20, 50, 100, 200, 500 and 1,000 μM in RLMs) corresponded to CYP2C9/CYP2C-2; mephenytoin (20, 50, 100, 200, 500 and 1,000 μM in HLMs; 5, 10, 20, 50, 100, 200, 500 and 1,000 μM in RLMs) corresponded to CYP2C19/CYP2C-3; and dextromethorphan (1, 2, 5, 10, 20, 50 and 100 μM in HLMs and RLMs) corresponded to CYP2D6/CYP2D. After 5.0 min of preincubation in the shaking water bath, the reaction was started with the addition of 1.0 mM NADPH. The incubated temperature at 37°C for 30 min. After the incubation, the enzyme reaction was stopped by cooling at −80°C, and 200 μL of acetonitrile and 20 μL of internal standard diazepam (200 ng/mL) were added for protein precipitation. The solution was fully vortexed and centrifuged at 13,000 × rpm for 10 min, and the supernatant was collected for data analysis by UPLC-MS/MS.
The inhibitory mechanism of the inhibitor on the enzyme was generally used by different concentrations of the inhibitor against different concentrations of the probe substrate. The concentrations of the inhibitor and the concentrations of probe substrates in the experiment were estimated based on IC50 and Km values, respectively.
In HLMs, the concentrations of the substrates midazolam, bupropion, amodiaquine, losartan, mephenytoin, and dextromethorphan were 1, 2, 4, 8 μM; 10, 20, 40, 80 μM; 0.8, 1.5, 3, 6 μM; 2, 4, 8, 16 μM; 20, 45, 90, 180 μM; 2.5, 5, 10, 20 μM, respectively. Corresponding to the concentration of vortioxetine were 2, 4, 9, 18 μM; 2, 4, 8, 16 μM; 4, 8, 15, 30 μM; 5, 10, 25, 50 μM; 0.6, 1.2, 2.5, 5 μM; 4.5, 9, 18, 36 μM, respectively.
All experiments results were detected by UPLC-MS/MS, which equipped with a Waters Acquity UPLC system (Milford, MA, United States) and a Waters Xevo TQ-S triple quadrupole tandem mass spectrometer with an electrospray ionization source (Milford, MA, United States). The chromatographic separation was performed on a Waters ACQUITY UPLC BEH C18 column (2.1 × 50 mm, 1.7 μm, Waters Corp.) at 40°C. […]
(§2) IC50 values and enzyme kinetic parameters were calculated by Graphpad Prism 6.0 (GraphPad software Inc., CA, United States). […] Data for each experiment were expressed as mean ± SD (n = 3).

Details of data set [2]: method as in earlier work. To be noted: patients with severe liver impairment; single oral dose of 10 mg; ref (2022); cited from earlier work.
Data set [3] deals with CYP2C-1. Put plainly: IC50 of vortioxetine on CYP2C-1 (amodiaquine) in RLMs. Type of data set: in vitro ADME. The conditions noted are these: rat, rat liver microsomes, probe amodiaquine. The protocol: as §1, with “After 5.0 min of preincubation in the shaking water bath, the reaction was started with the addition of 1.0 mM NADPH. The incubated temperature at 37°C for 30 min. After the incubation, the enzyme reaction was stopped by cooling at −80°C, and 200 μL of acetonitrile and 20 μL of internal standard diazepam (200 ng/mL) were added for protein precipitation. The solution was fully vortexed and centrifuged at 13,000 × rpm for 10 min, and the supernatant was collected for data analysis by UPLC-MS/MS.” left out
(§3) All experiments results were detected by UPLC-MS/MS, which equipped with a Waters Acquity UPLC system (Milford, MA, United States) and a Waters Xevo TQ-S triple quadrupole tandem mass spectrometer with an electrospray ionization source (Milford, MA, United States). […]
as §2

The target in data set [4] is CYP2D6 (Homo sapiens, UniProt P10635). Put plainly: IC50 of vortioxetine on CYP2D6 (dextromethorphan) in HLMs. Type of data set: in vitro ADME. Details: 0.20 mg/mL HLMs; from tissue; host or cells: human liver microsomes. As for the experimental part:
as §1, with “After 5.0 min of preincubation in the shaking water bath, the reaction was started with the addition of 1.0 mM NADPH. The incubated temperature at 37°C for 30 min. After the incubation, the enzyme reaction was stopped by cooling at −80°C, and 200 μL of acetonitrile and 20 μL of internal standard diazepam (200 ng/mL) were added for protein precipitation. The solution was fully vortexed and centrifuged at 13,000 × rpm for 10 min, and the supernatant was collected for data analysis by UPLC-MS/MS.” left out
as §3, §2

Where two headings read alike, the source gives them in different places. A value given as a limit tells only on which side of the number the result lay.

Chain of CYP2D6 (P10635 whole entry): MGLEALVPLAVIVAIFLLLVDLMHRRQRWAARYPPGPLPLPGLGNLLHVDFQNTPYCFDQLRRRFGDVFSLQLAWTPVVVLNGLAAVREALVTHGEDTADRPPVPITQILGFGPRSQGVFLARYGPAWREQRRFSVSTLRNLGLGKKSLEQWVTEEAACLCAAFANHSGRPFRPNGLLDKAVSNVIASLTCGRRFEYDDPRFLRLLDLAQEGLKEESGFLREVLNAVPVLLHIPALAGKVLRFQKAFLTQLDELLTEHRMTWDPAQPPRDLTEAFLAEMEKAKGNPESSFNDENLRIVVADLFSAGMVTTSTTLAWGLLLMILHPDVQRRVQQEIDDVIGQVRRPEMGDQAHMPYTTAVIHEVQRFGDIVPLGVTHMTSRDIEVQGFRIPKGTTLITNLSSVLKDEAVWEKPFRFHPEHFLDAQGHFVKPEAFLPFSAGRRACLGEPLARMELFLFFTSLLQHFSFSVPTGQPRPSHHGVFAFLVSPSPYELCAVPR

Turning to `Cc1ccc(Sc2ccccc2N2CCNCC2)c(C)c1` [vortioxetine], in data set [1], the affinity, expressed as Ki, was 8.55 µM and the α is given as 2.70. Moreover, the Inhibition type result in data set [1] (Lineweaver-Burk plot) was “mixed inhibition”. Moreover, the αKi in data set [1] (secondary plot of y-intercepts) stood at 23.04 µM. Further, in data set [2], the “AUC(0-t) higher than healthy subjects” value was 10% and the “Cmax lower than healthy subjects” value is recorded as 24%. Also, the IC50 – broadly, the concentration that inhibits the measured activity by half – at 30 min in data set [3] (RLMs 0.20 mg/mL, amodiaquine at Km, 37°C, 30 min, read-out: IC50) came out at 22.2 µM. This compound also showed an IC50 at 30 min in data set [3] (inhibitory effect (strength judged by IC50), RLMs) greater than 10 µM. For the same compound, the IC50 in data set [4] (HLMs 0.20 mg/mL, dextromethorphan at Km, 37°C, 30 min, read-out: IC50) turned out to be 17.9 µM. This compound also showed an IC50 in data set [4] (inhibitory effect (strength judged by IC50), HLMs) greater than 10 µM.

These data come from paper PMC10544575, “Inhibitory mechanism of vortioxetine on CYP450 enzymes in human and rat liver microsomes” (Frontiers in Pharmacology, 2023).
